Source: patent US12550899B2, “Topramezone derivative and use thereof” (priority 2023, dated 2026)
“Also recorded” adds a separate entry of the source.

Legend:
Digitaria sanguinalis = experiment: Laboratory rainfastness test (foliar spray, simulated rainfall); assay type: in vivo; conditions: for Average fresh weight / Control efficacy: 20 days post-application
Procedure: Refer to the “Pesticides guidelines for laboratory bioactivity tests Part 4: Foliar spray application test for herbicide activity, NY/T 1155.4-2006”.
The soil used for the test was a mixture of surface 20 cm loam and vermiculite, mixed in a volume ratio of 3:1 to form a culture soil. The test weeds were cultured in a glass greenhouse with a temperature ranging from 25° C. to 35° C. and under natural light.
A measured quantity of Digitaria sanguinalis seeds were sown in plastic pots with a diameter of 9 cm, and covered with 1-2 mm of soil. The ports were then placed in enamel trays filled with water, and watered by bottom irrigation. After the water seeped to the soil surface, the pots were transferred to the glass greenhouse for standby.
Five dosages were set for Compound I, Compound II and the control herbicide Topramezone, which were 3.75, 7.5, 15, 30 and 60 grams of active ingredient per hectare respectively. In addition, a blank control was also prepared.
The required amount of the herbicide was accurately measured out and directly added with water, which was diluted to the required dosage by using the serial dilution method for standby.
(§1) The test was conducted on Digitaria sanguinalis at the two-leaf and one-heart stage, with the stems and leaves both sprayed uniformly. The ASS-4 automatic control spraying system with a fan-shaped nozzle was used indoors for herbicide application. Depending on the nozzle pressure and flow rate, 50 mL of herbicide solution was applied to a spraying area of 1.1 m^2 (which was equivalent to the water consumption of 30 L per mu). The system's operating speed was calibrated. The plastic pots to be treated were arranged evenly on the spraying platform to ensure uniform treatment. The spray pressure was set to 0.35 MPa, and the flow rate of the fan-shaped nozzle was set to 800 mL/min. The spraying was carried out in sequence from the low dosage to the high dosage. Each treatment was repeated four times.
The rainfastness test was set as follows: at 0.5 hours, 1.0 hour, 3.0 hours, and 6.0 hours after the application of the herbicide, the weeds that have already been sprayed with the herbicide were subjected to stem and leaf showering with a specific shower equipment simulating rainfall. Weeds that were not subjected to the showering treatment served as the control group.
The damage symptoms of the weeds (such as growth inhibition, chlorosis, malformation, etc.) were carefully recorded at 3, 7, 10, and 20 days after herbicide application. A visual comparison of the herbicide effectiveness was made after simulated rainfall at different time intervals. At 20 days post-application, the fresh weight of the aboveground parts of the weeds from each treatment group was measured, and the fresh weight control efficacy was calculated.
The treatment results were calculated according to the following formula: weed fresh weight control efficacy (%)=(control fresh weight−treatment fresh weight)/control fresh weight×100. A DPS statistical software was used to conduct regression analysis on the logarithmic values of the herbicide dosage and the probit values of the weed fresh weight control efficacy, and the correlation coefficient, GR50, GR90, and the 95% confidence interval were calculated.

corn = experiment: Corn safety laboratory test, visual observation and overall conclusion; assay type: in vivo
Procedure: Three corn varieties: Zhengdan 958, white waxy corn, and sweet corn (Runhua sweet corn).
The soil used for the test was a mixture of surface 20 cm loam and vermiculite, mixed in a volume ratio of 3:1 to form a culture soil. The test corn was cultured in a glass greenhouse with a temperature ranging from 25° C. to 35° C. and under natural light.
A measured quantity of corn seeds were sown in plastic pots with a diameter of 15 cm, and covered with 2-3 cm of soil. The ports were then placed in enamel trays filled with water, and watered by bottom irrigation. After sowing, the pots were transferred to the glass greenhouse for cultivation and growth.
In the corn safety test, dosages were set for the two Compounds (Compound I of the present invention and Compound II of the present invention) and the control herbicide Topramezone, which were 15, 30, 60, and 120 grams of active ingredient per hectare respectively. In addition, a blank control was also prepared.
The required amount of the herbicide was accurately measured out, an appropriate amount of emulsifier and organic solvent were added to dissolve the herbicide, and then a certain amount of water was added therein until the herbicide was diluted to the required dosage by using the serial dilution method for standby.
Corn stems and leaves were uniformly sprayed at the 3-4-leaf stage.
as §1, with “ASS-3” for “test was conducted on Digitaria sanguinalis at the two-leaf and one-heart stage, with the stems and leaves both sprayed uniformly. The ASS-4”, “three” for “four”
The herbicide was applied once. After spraying, the pots were air-dried for one day and then placed in the glass greenhouse. Regular watering was conducted to maintain moisture.
After application of the herbicide, whether there were any phytotoxic symptoms in the corn for each treatment was recorded. If yes, the phytotoxicity symptoms and grade were recorded in detail. 15 days after application, the fresh weight of the corn in each treatment was measured and the fresh weight control efficacy was calculated to assess the safety of the herbicide on the corn.

[1] = No spraying (no simulated rainfall), dosage 3.75 g/hectare
[2] = No spraying (no simulated rainfall), dosage 7.5 g/hectare
[3] = No spraying (no simulated rainfall), dosage 15 g/hectare
[4] = No spraying (no simulated rainfall), dosage 30 g/hectare
[5] = No spraying (no simulated rainfall), dosage 60 g/hectare
[6] = Spraying water 0.5 hour after herbicide application, dosage 3.75 g/hectare
[7] = Spraying water 0.5 hour after herbicide application, dosage 7.5 g/hectare
[8] = Spraying water 0.5 hour after herbicide application, dosage 15 g/hectare
[9] = Spraying water 0.5 hour after herbicide application, dosage 30 g/hectare
[10] = Spraying water 0.5 hour after herbicide application, dosage 60 g/hectare
[11] = Spraying water 1.0 hour after herbicide application, dosage 3.75 g/hectare
[12] = Spraying water 1.0 hour after herbicide application, dosage 7.5 g/hectare
[13] = Spraying water 1.0 hour after herbicide application, dosage 15 g/hectare
[14] = Spraying water 1.0 hour after herbicide application, dosage 30 g/hectare
[15] = Spraying water 1.0 hour after herbicide application, dosage 60 g/hectare
[16] = Spraying water 3.0 hour after herbicide application, dosage 3.75 g/hectare
[17] = Spraying water 3.0 hour after herbicide application, dosage 7.5 g/hectare
[18] = Spraying water 3.0 hour after herbicide application, dosage 15 g/hectare
[19] = Spraying water 3.0 hour after herbicide application, dosage 30 g/hectare
[20] = Spraying water 3.0 hour after herbicide application, dosage 60 g/hectare
[21] = Spraying water 6.0 hour after herbicide application, dosage 3.75 g/hectare
[22] = Spraying water 6.0 hour after herbicide application, dosage 7.5 g/hectare
[23] = Spraying water 6.0 hour after herbicide application, dosage 15 g/hectare
[24] = Spraying water 6.0 hour after herbicide application, dosage 30 g/hectare
[25] = Spraying water 6.0 hour after herbicide application, dosage 60 g/hectare

Compound: Cc1c(C(=O)c2cnn(C)c2O)ccc(S(C)(=O)=O)c1C1=NOCC1 [Topramezone]
- Average fresh weight (Digitaria sanguinalis; [1]): 6.2 g
- Control efficacy (Digitaria sanguinalis; [1]): 4.6%
- Average fresh weight (Digitaria sanguinalis; [2]): 5.0 g
- Control efficacy (Digitaria sanguinalis; [2]): 23.4%
- Average fresh weight (Digitaria sanguinalis; [3]): 3.7 g
- Control efficacy (Digitaria sanguinalis; [3]): 43.7%
- Average fresh weight (Digitaria sanguinalis; [4]): 2.3 g
- Control efficacy (Digitaria sanguinalis; [4]): 64.8%
- Average fresh weight (Digitaria sanguinalis; [5]): 1.2 g
- Control efficacy (Digitaria sanguinalis; [5]): 82.4%
- Average fresh weight (Digitaria sanguinalis; [6]): 6.5 g
- Control efficacy (Digitaria sanguinalis; [6]): 0.0%
- Average fresh weight (Digitaria sanguinalis; [7]): 6.0 g
- Control efficacy (Digitaria sanguinalis; [7]): 7.7%
- Average fresh weight (Digitaria sanguinalis; [8]): 5.9 g
- Control efficacy (Digitaria sanguinalis; [8]): 10.3%
- Average fresh weight (Digitaria sanguinalis; [9]): 5.5 g
- Control efficacy (Digitaria sanguinalis; [9]): 16.5%
- Average fresh weight (Digitaria sanguinalis; [10]): 4.6 g
- Control efficacy (Digitaria sanguinalis; [10]): 29.1%
- Average fresh weight (Digitaria sanguinalis; [11]): 6.4 g
- Control efficacy (Digitaria sanguinalis; [11]): 2.7%
- Average fresh weight (Digitaria sanguinalis; [12]): 6.0 g
- Control efficacy (Digitaria sanguinalis; [12]): 8.0%
- Average fresh weight (Digitaria sanguinalis; [13]): 5.7 g
- Control efficacy (Digitaria sanguinalis; [13]): 13.4%
- Average fresh weight (Digitaria sanguinalis; [14]): 5.3 g
- Control efficacy (Digitaria sanguinalis; [14]): 19.2%
- Average fresh weight (Digitaria sanguinalis; [15]): 4.7 g
- Control efficacy (Digitaria sanguinalis; [15]): 28.0%
- Average fresh weight (Digitaria sanguinalis; [16]): 6.4 g
- Control efficacy (Digitaria sanguinalis; [16]): 1.5%
- Average fresh weight (Digitaria sanguinalis; [17]): 5.8 g
- Control efficacy (Digitaria sanguinalis; [17]): 10.7%
- Average fresh weight (Digitaria sanguinalis; [18]): 5.7 g
- Control efficacy (Digitaria sanguinalis; [18]): 13.4%
- Average fresh weight (Digitaria sanguinalis; [19]): 4.1 g
- Control efficacy (Digitaria sanguinalis; [19]): 36.8%
- Average fresh weight (Digitaria sanguinalis; [20]): 3.3 g
- Control efficacy (Digitaria sanguinalis; [20]): 50.2%
- Average fresh weight (Digitaria sanguinalis; [21]): 6.5 g
- Control efficacy (Digitaria sanguinalis; [21]): 0.4%
- Average fresh weight (Digitaria sanguinalis; [22]): 5.1 g
- Control efficacy (Digitaria sanguinalis; [22]): 21.8%
- Average fresh weight (Digitaria sanguinalis; [23]): 3.5 g
- Control efficacy (Digitaria sanguinalis; [23]): 46.0%
- Average fresh weight (Digitaria sanguinalis; [24]): 2.7 g
- Control efficacy (Digitaria sanguinalis; [24]): 59.4%
- Average fresh weight (Digitaria sanguinalis; [25]): 1.2 g
- Control efficacy (Digitaria sanguinalis; [25]): 81.2%
- Effect of rain on control efficacy (in words) (Digitaria sanguinalis; rain 0.5 h, 1.0 h and 3.0 h after application): obviously affected; also recorded: significantly reduced
- Effect of rain on control efficacy (in words) (Digitaria sanguinalis; rain 6.0 h after application): relatively small impact; also recorded: almost unaffected
- Visual observation of corn (corn; 3 to 7 days after application): safe for corn
- Visual observation of corn (corn; 10 days after application): safe for corn
- Visual observation of corn (corn; 15 days after application): basically growing normally
- Overall safety for corn (corn; Zhengdan 958, waxy corn and sweet corn): high safety levels
